According to paper PMC10410440, “Preclinical PK investigation of a novel IDO1/TDO dual inhibitor—SHR9146 in mouse plasma and tissues by LC-MS/MS” (Frontiers in Oncology, 2023):
Values joined by “and” are separate entries in the source; they are usually repeats but may differ in a detail not shown here. Identical values can stand only once. Like-named read-outs stand apart in the source and are kept apart here.

Assay: Tissue distribution of SHR9146 in mice after oral gavage of 40 mg/kg
Type: in vivo, ICR mice
Details: female, 40 mg/kg oral gavage; for concentration at 1 h / concentration at 3 h / concentration at 6 h / concentration at 24 h: ICR, mouse, po
Description: ICR mice with body weight 16–26 g were supplied by Shanghai Lingchang Biotechnology Co., Ltd. (animal breeding license number SCXK (Shanghai) 2013-0018) and housed at Shanghai Institute of Materia Medica, Chinese Academy of Sciences [animal use license number SYXK (Shanghai) 2015-0027]. The mice used in this study were fasted overnight for 12 h but had free access to water. Food was supplied 4 h post-dose. All experiments in this study were conducted in accordance with the Guidelines for the Care and Use of Laboratory Animals of Shanghai Institute of Materia Medica, Chinese Academy of Sciences.
Another set of 30 mice were randomly assigned into five groups with equal numbers, males and females, for tissue distribution study with oral gavage at a single dose of 40 mg/kg at predetermined different time points: pre-dose and post dose at 1, 3, 6, and 24 h, respectively. The whole brain, heart, liver, spleen, lung, kidney, bladder, pancreas, testis, ovary, uterus, stomach, small intestine, adrenal gland, skin, skeletal muscle, thyroid gland, and abdominal fat tissues as well as the whole blood and plasma samples were harvested. Tissue samples were washed with 0.9% sodium chloride solution to remove the residual blood or contents, blotted on a filter paper, and stored at −70°C prior to the analysis.
Protein precipitation was selected for the pretreatment of both the plasma and the tissue homogenate prepared after thawing at room temperature, cut into pieces, and homogenized with a quintuple methanol–water mixture (1:1, v/v) for each tissue sample.
Briefly as follows, an aliquot of 25-μL plasma or tissue homogenate was spiked with 100 μL of internal standard solution (1 μg/mL for plasma, 0.2 μg/mL for tissue homogenate) and 300 μL of methanol added and vortex mixed for 60 s. The mixture was then centrifuged at 14,000 rpm at 4°C for 5.0 min, and the supernatant was diluted with methanol–water (4:1, v/v) in a ratio of 1:9 for the plasma or 1:1 for the tissue homogenate, and 5 μL of the resulting solution was injected for the LC-MS/MS analysis.
After oral administration of 40 mg/kg SHR9146, samples in different tissues at predetermined time points (pre-drug administration, post-drug administration at 1, 3, 6, and 24 h) were collected and prepared for the analysis. The drug concentrations of SHR9146 (μg/g or μg/mL) were determined for each mouse, and the mean and standard deviation were further obtained (Table S7).

[1] = 24 h, individual mice, 40 mg/kg

## OCCn1cc(-c2ccc(N3CCC([C@H]4c5c(F)cccc5-c5cncn54)CC3)cc2)cn1 [SHR9146]
1 h, individual mice, 40 mg/kg
  SHR9146 concentration in Bladder: 21.036 µg/g and 16.223 µg/g
  SHR9146 concentration in Kidney: 18.490 µg/g and 14.219 µg/g
  SHR9146 concentration in Liver: 26.622 µg/g and 23.393 µg/g
  SHR9146 concentration in Lung: 20.029 µg/g and 15.217 µg/g
  SHR9146 concentration in Pancreas: 22.508 µg/g and 15.532 µg/g
  SHR9146 concentration in Small intestine: 22.755 µg/g and 23.199 µg/g
3 h, individual mice, 40 mg/kg
  SHR9146 concentration in Bladder: 10.878 µg/g and 14.604 µg/g and 5.984 µg/g
  SHR9146 concentration in Kidney: 12.786 µg/g and 17.400 µg/g and 8.011 µg/g
  SHR9146 concentration in Liver: 20.374 µg/g and 27.066 µg/g and 11.815 µg/g
  SHR9146 concentration in Lung: 12.019 µg/g and 16.499 µg/g and 48.938 µg/g
  SHR9146 concentration in Pancreas: 13.466 µg/g and 17.374 µg/g and 6.520 µg/g
  SHR9146 concentration in Small intestine: 22.446 µg/g and 12.038 µg/g
6 h, individual mice, 40 mg/kg
  SHR9146 concentration in Adrenal gland: 4.009 µg/g and 0.427 µg/g and 1.219 µg/g
  SHR9146 concentration in Bladder: 1.685 μg/g and BLQ and 0.201 μg/g
  SHR9146 concentration in Brain: BLQ
  SHR9146 concentration in Kidney: 3.007 µg/g and 0.546 µg/g and 0.744 µg/g
  SHR9146 concentration in Liver: 4.132 µg/g and 0.621 µg/g and 1.090 µg/g
  SHR9146 concentration in Lung: 2.446 µg/g and 0.717 µg/g and 0.984 µg/g
  SHR9146 concentration in Ovary: BLQ
  SHR9146 concentration in Pancreas: 1.674 µg/g and 0.089 µg/g and 0.150 µg/g
  SHR9146 concentration in Skeletal muscle: BLQ
  SHR9146 concentration in Small intestine: 1.815 µg/g and 0.395 µg/g and 0.288 µg/g
  SHR9146 concentration in Spleen: BLQ
  SHR9146 concentration in Uterus: BLQ
  SHR9146 concentration in Whole blood: BLQ
24 h, individual mice
  SHR9146 concentration in Abdominal fat: BLQ
  SHR9146 concentration in Bladder: BLQ
  SHR9146 concentration in Brain: BLQ
  SHR9146 concentration in Heart: BLQ
  SHR9146 concentration in Kidney: BLQ
  SHR9146 concentration in Ovary: BLQ
  SHR9146 concentration in Pancreas: BLQ
  SHR9146 concentration in Plasma: BLQ
  SHR9146 concentration in Skeletal muscle: BLQ
  SHR9146 concentration in Skin: BLQ
  SHR9146 concentration in Small intestine: BLQ
  SHR9146 concentration in Spleen: BLQ
  SHR9146 concentration in Uterus: BLQ
  SHR9146 concentration in Whole blood: BLQ
  SHR9146 concentration in thyroid gland: BLQ
[1]
  SHR9146 concentration in Adrenal gland: 0.185 µg/g
  SHR9146 concentration in Liver: BLQ and 0.058 μg/g
  SHR9146 concentration in Lung: 0.151 µg/g and 0.191 µg/g
Abdominal fat, 40 mg/kg, 1 h, Mean (n=3), read-out: SHR9146 concentration in Abdominal fat
  concentration at 1 h: 13500 ng/g
Abdominal fat, 40 mg/kg, 1 h, individual mice, read-out: SHR9146 concentration in Abdominal fat
  concentration at 1 h: 11600 ng/g
Abdominal fat, 40 mg/kg, 3 h, Mean (n=3), read-out: SHR9146 concentration in Abdominal fat
  concentration at 3 h: 8930 ng/g
Abdominal fat, 40 mg/kg, 6 h, Mean (n=3), read-out: SHR9146 concentration in Abdominal fat
  concentration at 6 h: 416 ng/g
Adrenal gland, 40 mg/kg, 1 h, Mean (n=3), read-out: SHR9146 concentration in Adrenal gland
  concentration at 1 h: 36600 ng/g
Adrenal gland, 40 mg/kg, 1 h, individual mice, read-out: SHR9146 concentration in Adrenal gland
  concentration at 1 h: 31300 ng/g
Adrenal gland, 40 mg/kg, 3 h, Mean (n=3), read-out: SHR9146 concentration in Adrenal gland
  concentration at 3 h: 27800 ng/g
Adrenal gland, 40 mg/kg, 6 h, Mean (n=3), read-out: SHR9146 concentration in Adrenal gland
  concentration at 6 h: 1880 ng/g
Adrenal gland, 40 mg/kg, 24 h, Mean (n=3), read-out: SHR9146 concentration in Adrenal gland
  concentration at 24 h: 195 ng/g
Adrenal gland, 40 mg/kg, 24 h, individual mice, read-out: SHR9146 concentration in Adrenal gland
  concentration at 24 h: 214 ng/g
bladder, 40 mg/kg, 1 h, Mean (n=3), read-out: SHR9146 concentration in Bladder
  concentration at 1 h: 16800 ng/g
bladder, 40 mg/kg, 1 h, individual mice, read-out: SHR9146 concentration in Bladder
  concentration at 1 h: 13200 ng/g
bladder, 40 mg/kg, 3 h, Mean (n=3), read-out: SHR9146 concentration in Bladder
  concentration at 3 h: 10500 ng/g
bladder, 40 mg/kg, 6 h, Mean (n=3), read-out: SHR9146 concentration in Bladder
  concentration at 6 h: 629 ng/g
brain, 40 mg/kg, 1 h, Mean (n=3), read-out: SHR9146 concentration in Brain
  concentration at 1 h: 2370 ng/g
brain, 40 mg/kg, 1 h, individual mice, read-out: SHR9146 concentration in Brain
  concentration at 1 h: 2190 ng/g
brain, 40 mg/kg, 3 h, Mean (n=3), read-out: SHR9146 concentration in Brain
  concentration at 3 h: 1560 ng/g
brain, 40 mg/kg, 6 h, Mean (n=3), read-out: SHR9146 concentration in Brain
  concentration at 6 h: 87 ng/g
brain, 40 mg/kg, 6 h, individual mice, read-out: SHR9146 concentration in Brain
  concentration at 6 h: 261 ng/g
heart, 40 mg/kg, 1 h, Mean (n=3), read-out: SHR9146 concentration in Heart
  concentration at 1 h: 9540 ng/g
heart, 40 mg/kg, 1 h, individual mice, read-out: SHR9146 concentration in Heart
  concentration at 1 h: 7410 ng/g
heart, 40 mg/kg, 3 h, Mean (n=3), read-out: SHR9146 concentration in Heart
  concentration at 3 h: 7040 ng/g
heart, 40 mg/kg, 6 h, Mean (n=3), read-out: SHR9146 concentration in Heart
  concentration at 6 h: 334 ng/g
kidney, 40 mg/kg, 1 h, Mean (n=3), read-out: SHR9146 concentration in Kidney
  concentration at 1 h: 15300 ng/g
